System: cultured neurons
Assay: Neuronal survival 20 h after 1 h NMDA challenge
Format: cell-based
Details: peptide applied immediately after the NMDA challenge; FIG. 14
Method: The sequence of Tat-9cTRPM7 is: [[…] or [[…]-[…]] (SEQ ID NO:258), whereby the first 11 residues correspond to the cell membrane transduction domain of the human immunodeficiency virus type 1 (HIV-1) Tat protein and the last 9 residues correspond to the last 9 amino acids of the C-terminus of human TRPM7 (accession Q96QT4). […] (A) Neuronal survival at 20 h in the indicated concentrations of Tat-9cTRPM7 in the absence of excitotoxic challenge. (B) Neuronal survival 20 h after challenging the cultures for 1 h with the indicated concentration of NMDA. Tat-9cTRPM7 was applied immediately after the NMDA challenge.
The sequence of Tat-9cTRPM7 is: [[…]-[…]; SEQ ID NO:258], whereby the first 11 residues correspond to the cell-membrane transduction domain of the human immunodeficiency virus type 1 (HIV-1) Tat protein and the last 9 residues correspond to the last 9 amino acids of the C-terminus of human TRPM7 (accession Q96QT4). (A) Neuronal survival at 20 h in the indicated concentrations of Tat-9cTRPM7 in the absence of excitotoxic challenge. (B) Neuronal survival 20 h after challenging the cultures for 1 h with the indicated concentration of NMDA. Tat-9cTRPM7 was applied immediately after the NMDA challenge.

YGRKKRRQRRR-STNSVRLML (YGRKKRRQRRRSTNSVRLML) [Tat-9cTRPM7, HIV-1 Tat transduction domain fused to last 9 amino acids of human TRPM7]
Neuronal survival 20 h after challenging the cultures for 1 h with NMDA: enhanced survival when challenged with NMDA

— patent US7858322B2, “Method of determining inhibition of binding to TRPM7 protein” (NoNo, Inc., priority 2003, dated 2010)
